Test results as given in patent US4593090A, “Novel nitrosourea compounds, method for preparing same, and pharmaceutical composition containing same” (Gogo Kimura, priority 1981, dated 1986).

Legend:
Leukemia L1210 = experiment: Activity against Leukemia L1210, intraperitoneal, increase in life span of mice; assay type: in vivo, female mice (BDF1 family); details: for ED (maximum ILS) / ED30: Mus musculus, L1210, ip; for ED (maximum ILS): read-out: O.D. (optimum dosage); for ED30: read-out: ILS30; for Survivors after 60 days / Max. ILS % / Therapeutic ratio TR: ip; for Survivors after 60 days: 6-membered group; for Max. ILS %: 60-day observation, versus control; for Therapeutic ratio TR: O.D./ILS30
Procedure: Tests were conducted in accordance with the method for measuring antitumor activity of National Cancer Center Tokyo (A, Hoshi et al, Farumashia 9 464 (1973)). Test compounds were each intraperitoneally (referred to as ip) or orally (referred to as op) administered once a day for 5 successive days to a 6-membered group of femal mice (BDF1 family, each weighing 20 to 23 g) 24 hours after 1×10^5 cells of Leukemia L1210 have been implantated into the abdominal cavities of the mice, and the effect was evaluated by comparing the survival days of treated groups with those of an untreated group of mice (control group) in 60-day observation. An increase percentage of life span (ILS%) was calculated from said average survival days compared with those of the control group. Further, therapeutic ratio (O.D./ILD30, referred to as T.R.) of each tested compound was calculated from the daily dosage of the compound necessary to increase said average survival days by 30% as compared with the control group (this dosage is referred to as ILS 30) and the daily dosage giving a maximum increase of life span to mice implantated with L1210 cells, namely an optimum dosage (referred to as O.D.). The results of five successive days intraperitoneal administrations of test compounds were shown in Tables I to III, and those of five successive oral administrations in Table IV.

[1] = Acute toxicity (LD50, Behrens-Karber method); assay type: in vivo, ICR mice; details: ip, mortality during 30 days; for LD50 at 720 h: mouse, in vivo
Procedure: Test compounds, dissolved or suspended in 0.5% aqueous CMC, were each intraperitoneally administered to ICR mice in a dose of 0.1 ml per 10 g body weight. LD50 (mg/kg) value of each test compound was calculated from the mortality of mice during 30 days by the Behrens-Karber method.

[2] = ip once a day for 5 successive days, daily dosage giving maximum increase of life span
[3] = ip once a day for 5 successive days, daily dosage increasing average survival days by 30%

Structure (SMILES) | ED (maximum ILS) (Leukemia L1210; [2]) | ED30 (Leukemia L1210; [3]) | Survivors after 60 days (Leukemia L1210) | Max. ILS % (Leukemia L1210) | Therapeutic ratio TR (Leukemia L1210) | LD50 at 720 h [1] | O.D. (optimum dosage) (Leukemia L1210; [2]) | ILS30 (Leukemia L1210; [3]) | LD50 [1]
CCCCCCCCCCN(C[C@H]1O[C@H](OCCCC)[C@H](O)[C@@H](O)[C@@H]1O)C(=O)N(CCCl)N=O [Compound 8, 3-n-decyl-3-(n-butyl α-D-glucopyranose-6-yl)-1-(2-chloroethyl)-1-nitrosourea] | 100 mg/kg | 4.46 mg/kg | 3/6 | > 450% | 22.4 | 315 mg/kg | – | – | –
CCCCO[C@H]1O[C@H](CN(CC(C)C)C(=O)N(CCCl)N=O)[C@@H](O)[C@H](O)[C@H]1O [Compound 9, 3-isobutyl-3-(n-butyl α-D-glucopyranose-6-yl)-1-(2-chloroethyl)-1-nitrosourea] | 150 mg/kg | 3.33 mg/kg | 6/6 | > 700% | 45.0 | 440 mg/kg | – | – | –
CC(C)CO[C@H]1O[C@H](CN(C(=O)N(CCCl)N=O)C(C)C)[C@@H](O)[C@H](O)[C@H]1O [Compound 13, 3-isopropyl-3-(isobutyl α-D-glucopyranose-6-yl)-1-(2-chloroethyl)-1-nitrosourea] | 120 mg/kg | 2.77 mg/kg | 6/6 | > 700% | 43.3 | 375 mg/kg | – | – | –
CC(C)CO[C@H]1O[C@H](CN(CC(C)C)C(=O)N(CCCl)N=O)[C@@H](O)[C@H](O)[C@H]1O [Compound 14, 3-isobutyl-3-(isobutyl α-D-glucopyranose-6-yl)-1-(2-chloroethyl)-1-nitrosourea] | 170 mg/kg | 3.32 mg/kg | 6/6 | > 700% | 51.2 | 510 mg/kg | – | – | –
CCC(C)O[C@H]1O[C@H](CN(CC(C)C)C(=O)N(CCCl)N=O)[C@@H](O)[C@H](O)[C@H]1O (stereo partly drawn) [Compound 17, 3-isobutyl-3-(sec-butyl α-D-glucopyranose-6-yl)-1-(2-chloroethyl)-1-nitrosourea] | 170 mg/kg | 3.55 mg/kg | 6/6 | > 700% | 47.9 | 510 mg/kg | – | – | –
C=C(C)CN(C[C@H]1O[C@H](OC(C)CC)[C@H](O)[C@@H](O)[C@@H]1O)C(=O)N(CCCl)N=O (stereo partly drawn) [Compound 18, 3-(2-methyl-2-propenyl)-3-(sec-butyl α-D-glucopyranose-6-yl)-1-(2-chloroethyl)-1-nitrosourea] | 170 mg/kg | 3.92 mg/kg | 6/6 | > 700% | 43.4 | 515 mg/kg | – | – | –
COc1ccc(CN(C[C@H]2O[C@H](OCC(C)C)[C@H](O)[C@@H](O)[C@@H]2O)C(=O)N(CCCl)N=O)cc1 [Compound 21, 3-(p-methoxybenzyl)-3-(isobutyl α-D-glucopyranose-6-yl)-1-(2-chloroethyl)-1-nitrosourea] | 200 mg/kg | 5.45 mg/kg | 3/6 | > 360% | 36.7 | 585 mg/kg | – | – | –
CC(C)CO[C@H]1O[C@H](CN(Cc2ccccc2)C(=O)N(CCCl)N=O)[C@@H](O)[C@H](O)[C@H]1O [Compound 22, 3-benzyl-3-(isobutyl α-D-glucopyranose-6-yl)-1-(2-chloroethyl)-1-nitrosourea] | 170 mg/kg | 4.45 mg/kg | 3/6 | > 350% | 38.2 | 510 mg/kg | – | – | –
CC(C)CO[C@H]1O[C@H](CN(Cc2ccco2)C(=O)N(CCCl)N=O)[C@@H](O)[C@H](O)[C@H]1O [Compound 24, 3-furfuryl-3-(isobutyl α-D-glucopyranose-6-yl)-1-(2-chloroethyl)-1-nitrosourea] | 180 mg/kg | 3.1 mg/kg | 5/6 | > 620% | 58.1 | 555 mg/kg | – | – | –
CC(C)CCO[C@H]1O[C@H](CN(CC(C)C)C(=O)N(CCCl)N=O)[C@@H](O)[C@H](O)[C@H]1O [Compound 25, 3-isobutyl-3-(isopentyl α-D-glucopyranose-6-yl)-1-(2-chloroethyl)-1-nitrosourea] | 150 mg/kg | 4.2 mg/kg | 6/6 | > 700% | 35.7 | 450 mg/kg | – | – | –
CCCCCCO[C@H]1O[C@H](CN(CC(C)C)C(=O)N(CCCl)N=O)[C@@H](O)[C@H](O)[C@H]1O [Compound 26, 3-isobutyl-3-(n-hexyl α-D-glucopyranose-6-yl)-1-(2-chloroethyl)-1-nitrosourea] | 140 mg/kg | 4.63 mg/kg | 3/6 | > 370% | 30.2 | 415 mg/kg | – | – | –
CCCCCCO[C@H]1O[C@H](CN(C(=O)N(CCCl)N=O)C(C)COC)[C@@H](O)[C@H](O)[C@H]1O (stereo partly drawn) [Compound 27, 3-(1-methyl-2-methoxyethyl)-3-(n-hexyl α-D-glucopyranose-6-yl)-1-(2-chloroethyl)-1-nitrosourea] | 170 mg/kg | 4.67 mg/kg | 5/6 | > 630% | 36.4 | 505 mg/kg | – | – | –
CC(C)CN(C[C@H]1O[C@H](OC(C)(C)C)[C@H](O)[C@@H](O)[C@@H]1O)C(=O)N(CCCl)N=O [Compound 28, 3-isobutyl-3-(2-methyl-2-propyl α-D-glucopyranose-6-yl)-1-(2-chloroethyl)-1-nitrosourea] | – | – | 6/6 | > 700% | 43.2 | – | 130 mg/kg | 3.00 mg/kg | 375 mg/kg
CC=CCO[C@H]1O[C@H](CN(CC(C)C)C(=O)N(CCCl)N=O)[C@@H](O)[C@H](O)[C@H]1O [Compound 29, 3-isobutyl-3-(2-butenyl α-D-glucopyranose-6-yl)-1-(2-chloroethyl)-1-nitrosourea] | 140 mg/kg | 3.64 mg/kg | 5/6 | > 620% | 38.5 | 410 mg/kg | – | – | –
CCOCCCO[C@H]1O[C@H](CN(CC(C)C)C(=O)N(CCCl)N=O)[C@@H](O)[C@H](O)[C@H]1O [Compound 32, 3-isobutyl-3-(3-ethoxy-n-propyl α-D-glucopyranose-6-yl)-1-(2-chloroethyl)-1-nitrosourea] | 170 mg/kg | 2.91 mg/kg | 6/6 | > 700% | 58.4 | 495 mg/kg | – | – | –
COCC(C)O[C@H]1O[C@H](CN(CC(C)C)C(=O)N(CCCl)N=O)[C@@H](O)[C@H](O)[C@H]1O (stereo partly drawn) [Compound 33, 3-isobutyl-3-(1-methyl-2-methoxyethyl α-D-glucopyranose-6-yl)-1-(2-chloroethyl)-1-nitrosourea] | 170 mg/kg | 2.62 mg/kg | 6/6 | > 700% | 64.9 | 560 mg/kg | – | – | –
COCC(C)O[C@H]1O[C@H](CN(CC2CC2)C(=O)N(CCCl)N=O)[C@@H](O)[C@H](O)[C@H]1O (stereo partly drawn) [Compound 34, 3-cyclopropylmethyl-3-(1-methyl-2-methoxyethyl α-D-glucopyranose-6-yl)-1-(2-chloroethyl)-1-nitrosourea] | 150 mg/kg | 2.34 mg/kg | 6/6 | > 700% | 64.1 | 480 mg/kg | – | – | –
CC(C)CN(C[C@H]1O[C@H](OC2CCCCC2)[C@H](O)[C@@H](O)[C@@H]1O)C(=O)N(CCCl)N=O [Compound 36, 3-isobutyl-3-(cyclohexylα-D-glucopyranose-6-yl)-1-(2-chloroethyl)-1-nitrosourea] | 180 mg/kg | 3.69 mg/kg | 6/6 | > 700% | 48.8 | 580 mg/kg | – | – | –
CCC(C)N(C[C@H]1O[C@H](OC2CCCCC2)[C@H](O)[C@@H](O)[C@@H]1O)C(=O)N(CCCl)N=O (stereo partly drawn) [Compound 37, 3-sec-butyl-3-(cyclohexyl α-D-glucopyranose-6-yl)-1-(2-chloroethyl)-1-nitrosourea] | 200 mg/kg | 3.69 mg/kg | 5/6 | > 620% | 54.2 | 605 mg/kg | – | – | –
